pIC50: −log10 of the molar value. Like-named read-outs stand apart in the source and are kept apart here.
Key:
[1] = test system: 3D7-strain P. falciparum asexual parasites; test: P. falciparum asexual growth inhibition assay (Pf GIA); format: cell-based, Plasmodium falciparum; conditions: dose response confirmation; read-out: Pf asexual growth inhibition assays IC50
Procedure, shortened: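 0.25% parasitemia, 2% Hct, RPMI/HEPES/hypoxanthine/5% Albumax; compound dose response, 72 h, 37°C, 5% CO2, 5% O2, 90% N2. Freeze-thaw, then LDH assay, A650. % inhibition vs chloroquine (50 μM)/DMSO, mean of 3 independent runs.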

HepG2 cells = test: HepG2 cytotoxicity assay; conditions: for pIC50: read-out: HepG2 cytotoxicity assay IC50, dose response confirmation; for Pb ODA (this manuscript) HepG2 cytoxicity: HepG2 cytotoxicity listed with the Pb ODA data set (this manuscript)
Procedure, shortened: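 Percent inhibition derived from fluorescent viability readout, normalised to DMSO (negative) and 50 μM doxorubicin (positive). Compound incubation lasted 48 h at 37°C, 5% CO2, with 2,500 HepG2 cells/well in MEM plus 10% FBS and 1% NEAA.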

[2] = test system: P. berghei ookinete development; conditions: for % inhibition, Replicate A / % inhibition, Replicate B: primary screen at 1 μM
[3] = unified HepG2 value across the three screens
[4] = read-out: Pb ODA IC50, this manuscript
[5] = read-out: Pb Ookinete development assay IC50, dose response confirmation
[6] = read-out: Pb ODA (this manuscript) IC50, P. berghei ookinete development assay, this manuscript
[7] = HepG2 values of the three screens unified

Cc1c2ccncc2c(C)c2c1[nH]c1ccccc12 [TCMDC-125546]
pIC50 [1]: 5.92
pIC50 (HepG2 cells): 4.82
Unified cytotox (HepG2 cells; [3]): 15.14 µM
Is compound selective in assay? Pb ODA active? ([2]; 1: YES, 0: NO): 0 (0: NO)
% inhibition, Replicate A [2]: 41.57%
% inhibition, Replicate B [2]: 50.63%
pIC50 [2, 4]: 5.28
pIC50 [2, 5]: 5.28

CCn1cc(C(=O)O)c(=O)c2cc(F)c(N3CCN(S(=O)(=O)c4ccc(N)cc4)CC3)cc21 [TCMDC-125809]
pIC50 [1]: 5.77
pIC50 (HepG2 cells): 4.00
Unified cytotox (HepG2 cells; [3]): 100.00 µM
Is compound selective in assay? Pb ODA active? ([2]; 1: YES, 0: NO): 1 (1: YES)
% inhibition, Replicate A [2]: 58.34%
% inhibition, Replicate B [2]: 60.71%
pIC50 [2, 4]: 6.01
pIC50 [2, 5]: 6.01

O=C(NC(=O)c1ccccc1O)c1ccccc1O [TCMDC-125868]
pIC50 [1]: 5.69
pIC50 (HepG2 cells): 4.00
Unified cytotox (HepG2 cells; [3]): 100.00 µM
Is compound selective in assay? Pb ODA active? ([2]; 1: YES, 0: NO): 1 (1: YES)
% inhibition, Replicate A [2]: 63.28%
% inhibition, Replicate B [2]: 34.36%
pIC50 [2, 5]: 6.34

COc1ccc2nccc(NC(=O)C3CCC(NCc4cnc(SC)c([N+](=O)[O-])c4)CC3)c2n1.Cl (stereo not drawn) [TCMDC-131238]
pIC50 [1]: 6.17
Pb ODA (this manuscript) HepG2 cytoxicity (HepG2 cells): 14.62 µM
pIC50 (HepG2 cells): 4.84
Is compound selective in assay? Pb ODA active? [2]: 0 (key: 1: YES; 0: NO)
% inhibition, Replicate A [2]: 77.59%
% inhibition, Replicate B [2]: 35.00%
pIC50 [2, 6]: 5.62
pIC50 [2, 5]: 5.62

Br.CCCc1cc(C)ccc1OCCCON1C(N)=NC(N)=NC1(C)C [TCMDC-131320]
pIC50 [1]: > 9.70
HepG2 cytoxicity (Pb ODA, this manuscript) (HepG2 cells): 0.0017 µM
Unified cytotox (HepG2 cells; [7]): 0.0017 µM
pIC50 (HepG2 cells): 8.77
Is compound selective in assay? Pb ODA active? ([2]; 1: YES, 0: NO): 0 (0: NO)
% inhibition, Replicate A [2]: 73.15%
% inhibition, Replicate B [2]: 59.20%
pIC50 [2, 4]: 5.29
pIC50 [2, 5]: 5.29

C=CCc1cc(OC)ccc1OCCCOc1c(C)nc(N)nc1N.Cl [TCMDC-131358]
pIC50 [1]: > 9.70
pIC50 (HepG2 cells): 6.59
Unified cytotox (HepG2 cells; [3]): 0.26 µM
Is compound selective in assay? Pb ODA active? ([2]; 1: YES, 0: NO): 0 (0: NO)
% inhibition, Replicate A [2]: 71.96%
% inhibition, Replicate B [2]: 22.95%
pIC50 [2, 4]: 5.63
pIC50 [2, 5]: 5.63

CCN(CC)c1ccccc1CNC(=O)c1cc(Cl)c(N)cc1OC [TCMDC-131416]
pIC50 [1]: > 9.70
pIC50 (HepG2 cells): 4.38
Unified cytotox (HepG2 cells; [3]): 41.69 µM
Is compound selective in assay? Pb ODA active? ([2]; 1: YES, 0: NO): 1 (1: YES)
% inhibition, Replicate A [2]: 54.83%
% inhibition, Replicate B [2]: 54.70%
pIC50 [2, 4]: 5.88
pIC50 [2, 5]: 5.88

CCOC(=O)c1c(-c2ccccc2)nc2c(sc3ccccc32)c1O [TCMDC-131540]
pIC50 [1]: 5.41
pIC50 (HepG2 cells): 4.00
Unified cytotox (HepG2 cells; [3]): 100.00 µM
Is compound selective in assay? Pb ODA active? ([2]; 1: YES, 0: NO): 1 (1: YES)
% inhibition, Replicate A [2]: 101.19%
% inhibition, Replicate B [2]: 85.53%
pIC50 [2, 4]: 5.88
pIC50 [2, 5]: 5.88

CC(ON1C(N)=NC(N)=NC1(C)C)c1ccccc1 (stereo not drawn) [TCMDC-131596]
pIC50 [1]: 7.85
HepG2 cytoxicity (Pb ODA, this manuscript) (HepG2 cells): 0.0372 µM
Unified cytotox (HepG2 cells; [7]): 0.0372 µM
pIC50 (HepG2 cells): 7.43
Is compound selective in assay? Pb ODA active? ([2]; 1: YES, 0: NO): 0 (0: NO)
% inhibition, Replicate A [2]: 78.80%
% inhibition, Replicate B [2]: 47.07%
pIC50 [2, 5]: 5.28

Br.Cc1ccc(OCCCON2C(=N)N=C(N)NC2(C)C)cc1C [TCMDC-131650]
pIC50 [1]: > 9.70
Pb ODA (this manuscript) HepG2 cytoxicity (HepG2 cells): 0.001 µM
pIC50 (HepG2 cells): 9.00
Is compound selective in assay? Pb ODA active? [2]: 0 (key: 1: YES; 0: NO)
% inhibition, Replicate A [2]: 43.37%
% inhibition, Replicate B [2]: 66.90%
pIC50 [2, 6]: 5.30
pIC50 [2, 5]: 5.30

Br.CC1(C)N=C(N)N=C(N)N1OCCc1cccc2ccccc12 [TCMDC-131663]
pIC50 [1]: 7.62
Pb ODA (this manuscript) HepG2 cytoxicity (HepG2 cells): 0.001 µM
pIC50 (HepG2 cells): 9.00
Is compound selective in assay? Pb ODA active? [2]: 0 (key: 1: YES; 0: NO)
% inhibition, Replicate A [2]: 57.64%
% inhibition, Replicate B [2]: 56.80%
pIC50 [2, 6]: 5.57
pIC50 [2, 5]: 5.57

Br.CC1(C)NC(N)=NC(=N)N1OCCSc1ccccc1 [TCMDC-131670]
pIC50 [1]: > 9.70
Pb ODA (this manuscript) HepG2 cytoxicity (HepG2 cells): 0.001 µM
pIC50 (HepG2 cells): 9.00
Is compound selective in assay? Pb ODA active? [2]: 0 (key: 1: YES; 0: NO)
% inhibition, Replicate A [2]: 44.97%
% inhibition, Replicate B [2]: 56.76%
pIC50 [2, 6]: 5.54
pIC50 [2, 5]: 5.54

Br.CC1(C)NC(N)=NC(=N)N1OCCCOc1cc(Cl)ccc1Cl [TCMDC-131679]
pIC50 [1]: > 9.70
Pb ODA (this manuscript) HepG2 cytoxicity (HepG2 cells): 0.001 µM
pIC50 (HepG2 cells): 9.00
Is compound selective in assay? Pb ODA active? [2]: 0 (key: 1: YES; 0: NO)
% inhibition, Replicate A [2]: 77.33%
% inhibition, Replicate B [2]: 60.56%
pIC50 [2, 6]: 5.47
pIC50 [2, 5]: 5.47

Br.CC(CON1C(N)=NC(N)=NC1(C)C)c1ccc(Cl)cc1Cl (stereo not drawn) [TCMDC-131687]
pIC50 [1]: 7.41
HepG2 cytoxicity (Pb ODA, this manuscript) (HepG2 cells): 0.001 µM
Unified cytotox (HepG2 cells; [7]): 0.001 µM
pIC50 (HepG2 cells): 9.00
Is compound selective in assay? Pb ODA active? ([2]; 1: YES, 0: NO): 0 (0: NO)
% inhibition, Replicate A [2]: 63.61%
% inhibition, Replicate B [2]: 60.22%
pIC50 [2, 4]: 5.68
pIC50 [2, 5]: 5.68

CC1(C)N=C(N)N=C(N)N1OCCCc1ccccc1.Cl [TCMDC-131689]
pIC50 [1]: > 9.70
HepG2 cytoxicity (Pb ODA, this manuscript) (HepG2 cells): 0.001 µM
Unified cytotox (HepG2 cells; [7]): 0.001 µM
pIC50 (HepG2 cells): 9.00
Is compound selective in assay? Pb ODA active? ([2]; 1: YES, 0: NO): 0 (0: NO)
% inhibition, Replicate A [2]: 42.43%
% inhibition, Replicate B [2]: 56.50%
pIC50 [2, 4]: 5.60
pIC50 [2, 5]: 5.59

Br.COc1ccc(CCCON2C(=N)N=C(N)NC2(C)C)cc1 [TCMDC-131693]
pIC50 [1]: > 9.70
Pb ODA (this manuscript) HepG2 cytoxicity (HepG2 cells): 0.001 µM
pIC50 (HepG2 cells): 9.00
Is compound selective in assay? Pb ODA active? [2]: 0 (key: 1: YES; 0: NO)
% inhibition, Replicate A [2]: 23.91%
% inhibition, Replicate B [2]: 55.92%
pIC50 [2, 6]: 5.23
pIC50 [2, 5]: 5.23

Br.CC1(C)NC(N)=NC(=N)N1OCCSc1ccc(Cl)c(Cl)c1 [TCMDC-131704]
pIC50 [1]: > 9.70
Pb ODA (this manuscript) HepG2 cytoxicity (HepG2 cells): 0.001 µM
pIC50 (HepG2 cells): 9.00
Is compound selective in assay? Pb ODA active? [2]: 0 (key: 1: YES; 0: NO)
% inhibition, Replicate A [2]: 51.68%
% inhibition, Replicate B [2]: 39.02%
pIC50 [2, 6]: 5.08
pIC50 [2, 5]: 5.08

Br.CCC(ON1C(N)=NC(N)=NC1(C)C)c1ccc(Cl)cc1 (stereo not drawn) [TCMDC-131709]
pIC50 [1]: 8.81
Pb ODA (this manuscript) HepG2 cytoxicity (HepG2 cells): 0.00513 µM
pIC50 (HepG2 cells): 8.29
Is compound selective in assay? Pb ODA active? [2]: 0 (key: 1: YES; 0: NO)
% inhibition, Replicate A [2]: 60.03%
% inhibition, Replicate B [2]: 57.14%
pIC50 [2, 6]: 5.49
pIC50 [2, 5]: 5.49

Br.CC(CCON1C(N)=NC(N)=NC1(C)C)c1ccc(Cl)cc1 (stereo not drawn) [TCMDC-131721]
pIC50 [1]: > 9.70
Pb ODA (this manuscript) HepG2 cytoxicity (HepG2 cells): 0.001 µM
pIC50 (HepG2 cells): 9.00
Is compound selective in assay? Pb ODA active? [2]: 0 (key: 1: YES; 0: NO)
% inhibition, Replicate A [2]: 71.36%
% inhibition, Replicate B [2]: 33.21%
pIC50 [2, 6]: 5.02
pIC50 [2, 5]: 5.02

Br.COc1ccc(CC(C)CON2C(N)=NC(N)=NC2(C)C)cc1 (stereo not drawn) [TCMDC-131722]
pIC50 [1]: > 9.70
Pb ODA (this manuscript) HepG2 cytoxicity (HepG2 cells): 0.001 µM
pIC50 (HepG2 cells): 9.00
Is compound selective in assay? Pb ODA active? [2]: 0 (key: 1: YES; 0: NO)
% inhibition, Replicate A [2]: 50.32%
% inhibition, Replicate B [2]: 49.29%
pIC50 [2, 6]: 5.31
pIC50 [2, 5]: 5.31

Source: article PMC6753678, “Fueling Open Innovation for Malaria Transmission-Blocking Drugs: Hundreds of Molecules Targeting Early Parasite Mosquito Stages” (Frontiers in Microbiology, 2019)
